Data reported in patent US11596637B2, “CHK1 (SRA737)/PARPi combination methods of inhibiting tumor growth” (SIERRA ONCOLOGY, INC., priority 2017, dated 2023).
Like-named read-outs stand apart in the source and are kept apart here.

Tests used:
[1] = test system: 10 cancer cell lines; assay type: cell-based; conditions: for single agent activity across the cancer cell lines tested (in words): 10 cancer cell lines
Procedure: (§1) Briefly, cell lines were preserved in liquid nitrogen and thawed and expanded in growth media containing full serum. As the cells reached expected doubling times, the screening assay began. Cells were seeded in growth media and equilibrated via centrifugation. The cell cultures were placed in incubators and then underwent treatment. Assay plates were collected and ATP levels were measured. Assay plates were incubated with combinations for seventy two (72) or ninety six (96) hours in simultaneous and sequential dosing schedules.
(§2) Cell lines that have been preserved in liquid nitrogen were thawed and expanded in growth media containing full serum. Once cells have reached expected doubling times, screening began. Cells were seeded in growth media in black 384-well tissue culture treated plates at cell densities as listed in Appendix 1 incorporated into and part of this specification. Cells were equilibrated in assay plates via centrifugation and placed in incubators (attached to the Dosing Modules) at 37° C. for 24 hours before treatment. […] These Tzero (T0) plates were read using ultra-sensitive luminescence on Envision plate readers. Assay plates were incubated with compounds for 72 and were then analyzed using ATPLite™.
(§3) Chalice Analyzer allows two ways of visualizing single agent dose response curves. The Logistics Curve fit modeling in Analyzer uses sigmoidal modeling of the data points. In most contexts, the Logistics Curve fit will accurately model the dose response curve. All subsequent analyses for the single agent and combination activities of SRA737 contained within the Examples use the Linear Interpolation Curve fit.
(§4) A GI 100% represents complete growth inhibition (cytostasis) and in this case cells treated with compound for 72 or 96 hours would have the same endpoint reading as T0 control cells. A GI of 200% represents complete death (cytotoxicity) of all cells in the culture well and in this case the T reading at 72 or 96 hours will be lower than the T0 control (values near or at zero). These GI calculations were used in all single agent and combination data analysis for the combination screen.
(§5) Single agent activity of SRA737 and four PARP inhibitors in each of 10 cancer cell lines comprising breast, ovarian, prostate sarcoma and head and neck cancer cells was assessed (FIGS. 3-9). The 10 cancer cell lines examined were: A673, B-474, CAL-27, DU-145, MDA-MB-231, OVCAR-3, OVCAR-5, PC-3, HT-29 and SK-BR-3. The cell lines were screened with a 72 hour treatment schedule. Cell viability was measured by detection of ATP metabolism using an ATP monitoring luminescence detection assay (ATPLite™) GI50, IC50, Maximum Response Observed (Max Response) were calculated (FIG. 5).

[2] = test system: DU145 cells; assay: Single agent assessment, ATPLite cell viability, 72 hour treatment; assay type: cell-based, human
Procedure: as §1, §2, §3, §4, §5

[3] = test system: MDA-MB-231 cells; assay: as above; assay type: cell-based, human
Procedure: as §1, §2, §3, §4, §5

[4] = test system: BT-474 cells; assay: as above; assay type: cell-based, human
Procedure: as §1, §2, §3, §4, §5

[5] = test system: A673 cells; assay: as above; assay type: cell-based, human
Procedure: as §1, §2, §3, §4, §5

[6] = test system: OVCAR-3 cells; assay: as above; assay type: cell-based, human
Procedure: as §1, §2, §3, §4, §5

[7] = test system: PC-3 cells; assay: as above; assay type: cell-based, human
Procedure: as §1, §2, §3, §4, §5

[8] = test system: CAL-27 cells; assay: as above; assay type: cell-based, human
Procedure: as §1, §2, §3, §4, §5

[9] = test system: SK-BR-3 cells; assay: as above; assay type: cell-based, human
Procedure: as §1, §2, §3, §4, §5

[10] = test system: OVCAR-5 cells; assay: as above; assay type: cell-based, human
Procedure: as §1, §2, §3, §4, §5

[11] = test system: HT-29 cells; assay: as above; assay type: cell-based, human
Procedure: as §1, §2, §3, §4, §5

CNCc1ccc(-c2[nH]c3cc(F)cc4c3c2CCNC4=O)cc1 [Rucaparib]
single agent activity across the cancer cell lines tested (in words) ([1]; 72 hour treatment): activity in most of the cancer cell lines tested

N#Cc1cnc(Nc2cc(NCC3CNCCO3)c(C(F)(F)F)cn2)cn1 (centres unmarked) [SRA737, 5-[[4-[[morpholin-2-yl]methylamino]-5-(trifluoromethyl)-2-pyridyl]amino]pyrazine-2-carbonitrile]
number of cancer cell lines in which single agent activity was demonstrated ([1]; of the 10 cancer cell lines, 72 hour treatment): 8 | kind of single agent effect (cytotoxic / cytostatic) ([1]; the remaining six responsive cell lines): cytostatic | kind of single agent effect (cytotoxic / cytostatic) ([1]; the two most responsive cell lines): modestly cytotoxic | sensitivity of the cell line to the single agent [2]: intermediate sensitivity | sensitivity of the cell line to the single agent [3]: least sensitivity | sensitivity of the cell line to the single agent [4]: least sensitivity | sensitivity of the cell line to the single agent [5]: intermediate sensitivity | sensitivity of the cell line to the single agent [6]: intermediate sensitivity | sensitivity of the cell line to the single agent [7]: least sensitivity | sensitivity of the cell line to the single agent [8]: least sensitivity | sensitivity of the cell line to the single agent [9]: highest sensitivity | sensitivity of the cell line to the single agent [10]: highest sensitivity | sensitivity of the cell line to the single agent [11]: intermediate sensitivity

Cn1ncnc1[C@H]1c2n[nH]c(=O)c3cc(F)cc(c23)N[C@@H]1c1ccc(F)cc1 [BMN 673, Talazoparib]
single agent activity across the cancer cell lines tested (in words) ([1]; 72 hour treatment): activity in most of the cancer cell lines tested

O=C(c1cc(Cc2n[nH]c(=O)c3ccccc23)ccc1F)N1CCN(C(=O)C2CC2)CC1 [Olaparib]
single agent activity across the cancer cell lines tested (in words) ([1]; 72 hour treatment): activity in most of the cancer cell lines tested

NC(=O)c1cccc2cn(-c3ccc([C@@H]4CCCNC4)cc3)nc12 [Niraparib]
single agent activity across the cancer cell lines tested (in words) ([1]; 72 hour treatment): activity in most of the cancer cell lines tested
